# In ChEMBL document CHEMBL1201862, “PubChem BioAssay data set” (2004):
# Active and inactive are the calls of the source.
# How the values were obtained:
# Cytochrome P450 2D6 = Cytochrome P450 2D6 (Homo sapiens, UniProt P10635);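 also: CYP2D6 member of a cytochrome P450 panel assay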
# [1] = target: T1, Sentrin-specific protease 7 (Homo sapiens, UniProt Q9BQF6); type: functional;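 also: Luminescence-based dose-response confirmation of ultra-high-throughput screening hits, measuring inhibition of SENP7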
# T1 sequence (Q9BQF6 whole entry): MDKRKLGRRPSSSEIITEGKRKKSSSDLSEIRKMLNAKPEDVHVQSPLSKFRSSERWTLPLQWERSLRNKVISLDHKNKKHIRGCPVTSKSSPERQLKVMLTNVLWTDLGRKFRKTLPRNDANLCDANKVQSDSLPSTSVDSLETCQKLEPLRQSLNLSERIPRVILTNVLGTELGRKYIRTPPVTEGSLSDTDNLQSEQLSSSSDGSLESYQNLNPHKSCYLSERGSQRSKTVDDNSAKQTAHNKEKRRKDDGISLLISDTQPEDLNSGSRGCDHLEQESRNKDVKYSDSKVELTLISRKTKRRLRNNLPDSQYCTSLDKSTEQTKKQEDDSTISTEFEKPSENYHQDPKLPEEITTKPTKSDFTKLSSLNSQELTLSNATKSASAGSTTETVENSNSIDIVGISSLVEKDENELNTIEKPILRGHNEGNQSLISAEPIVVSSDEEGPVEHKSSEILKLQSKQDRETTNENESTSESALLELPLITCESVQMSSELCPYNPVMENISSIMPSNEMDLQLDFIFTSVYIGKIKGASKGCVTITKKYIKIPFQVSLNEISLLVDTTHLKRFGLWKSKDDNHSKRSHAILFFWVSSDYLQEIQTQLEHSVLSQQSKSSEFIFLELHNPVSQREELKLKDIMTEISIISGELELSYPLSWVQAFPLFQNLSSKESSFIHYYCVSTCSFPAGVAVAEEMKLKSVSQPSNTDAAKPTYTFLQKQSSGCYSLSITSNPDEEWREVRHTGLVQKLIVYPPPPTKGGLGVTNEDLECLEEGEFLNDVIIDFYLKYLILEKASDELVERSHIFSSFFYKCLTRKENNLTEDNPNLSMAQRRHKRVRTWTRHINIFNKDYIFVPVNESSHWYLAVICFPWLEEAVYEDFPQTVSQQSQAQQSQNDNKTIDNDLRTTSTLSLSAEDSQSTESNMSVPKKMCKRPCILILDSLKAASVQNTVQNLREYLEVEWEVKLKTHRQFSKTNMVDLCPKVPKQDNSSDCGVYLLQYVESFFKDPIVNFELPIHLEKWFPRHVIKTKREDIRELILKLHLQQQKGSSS
# Caspase-3 = target: T2, Caspase-3 (Homo sapiens, UniProt P42574); type: functional;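 also: Dose-response selectivity test against caspase-3 for candidate inhibitors of sentrin-specific proteases (SENPs)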
# T2 sequence (P42574 whole entry): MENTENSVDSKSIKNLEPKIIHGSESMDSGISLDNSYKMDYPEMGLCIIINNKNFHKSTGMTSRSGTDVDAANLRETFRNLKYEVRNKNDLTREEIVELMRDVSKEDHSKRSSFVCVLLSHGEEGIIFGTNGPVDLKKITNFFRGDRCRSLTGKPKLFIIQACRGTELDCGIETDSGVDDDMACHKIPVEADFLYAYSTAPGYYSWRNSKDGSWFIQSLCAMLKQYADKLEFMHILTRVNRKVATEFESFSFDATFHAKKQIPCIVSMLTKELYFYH
# [2] = target: Induced myeloid leukemia cell differentiation protein Mcl-1 (Homo sapiens, UniProt Q07820); type: functional
# [3] = target: T3, Sentrin-specific protease 6 (Homo sapiens, UniProt Q9GZR1); type: functional;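 also: Luminescence-based dose-response confirmatory assay of SENP6 inhibition, following up an ultra-high-throughput screen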
# T3 sequence (Q9GZR1 whole entry): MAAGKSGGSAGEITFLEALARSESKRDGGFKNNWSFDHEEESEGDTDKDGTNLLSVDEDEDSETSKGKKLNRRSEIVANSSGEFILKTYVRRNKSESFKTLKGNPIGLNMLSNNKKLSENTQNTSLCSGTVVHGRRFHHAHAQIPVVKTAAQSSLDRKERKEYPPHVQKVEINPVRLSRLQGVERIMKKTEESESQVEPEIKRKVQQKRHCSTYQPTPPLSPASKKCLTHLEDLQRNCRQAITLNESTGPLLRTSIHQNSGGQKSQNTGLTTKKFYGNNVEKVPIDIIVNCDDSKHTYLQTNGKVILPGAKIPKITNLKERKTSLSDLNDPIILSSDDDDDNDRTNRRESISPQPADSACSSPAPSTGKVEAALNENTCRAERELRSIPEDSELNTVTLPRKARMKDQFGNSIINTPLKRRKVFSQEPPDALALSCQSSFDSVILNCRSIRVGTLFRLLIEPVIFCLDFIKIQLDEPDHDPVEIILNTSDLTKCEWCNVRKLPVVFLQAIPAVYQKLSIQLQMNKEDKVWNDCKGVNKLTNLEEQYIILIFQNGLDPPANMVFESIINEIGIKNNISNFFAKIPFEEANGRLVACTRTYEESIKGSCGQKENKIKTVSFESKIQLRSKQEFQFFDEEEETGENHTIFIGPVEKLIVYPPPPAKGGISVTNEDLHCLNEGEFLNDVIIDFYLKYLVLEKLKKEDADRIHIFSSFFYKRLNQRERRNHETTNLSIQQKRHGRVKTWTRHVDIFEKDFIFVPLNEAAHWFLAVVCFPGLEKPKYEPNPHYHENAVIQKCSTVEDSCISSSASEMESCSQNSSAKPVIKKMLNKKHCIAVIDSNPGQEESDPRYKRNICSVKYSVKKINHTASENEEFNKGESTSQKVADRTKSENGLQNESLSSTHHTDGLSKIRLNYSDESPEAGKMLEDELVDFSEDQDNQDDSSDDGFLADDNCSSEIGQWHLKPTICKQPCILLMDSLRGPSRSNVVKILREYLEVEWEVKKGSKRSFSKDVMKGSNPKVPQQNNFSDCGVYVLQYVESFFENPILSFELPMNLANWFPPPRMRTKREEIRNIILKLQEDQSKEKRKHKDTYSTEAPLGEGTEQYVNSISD
# [4] = target: T4, Sentrin-specific protease 8 (Homo sapiens, UniProt Q96LD8); type: functional;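 also: luminescence read-out of SENP8 inhibition, dose-response confirmation following an ultra-high-throughput screen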
# T4 sequence (Q96LD8 whole entry): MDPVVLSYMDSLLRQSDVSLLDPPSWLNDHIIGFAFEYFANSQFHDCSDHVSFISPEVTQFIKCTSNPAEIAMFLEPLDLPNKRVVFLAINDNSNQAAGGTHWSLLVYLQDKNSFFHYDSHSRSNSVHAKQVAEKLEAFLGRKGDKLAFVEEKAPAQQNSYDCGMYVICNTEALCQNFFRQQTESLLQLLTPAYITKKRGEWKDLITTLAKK
# [5] = viability of HCT116 lacking mutant beta-catenin – cell-based, human colon tumor, dose response (AID 1045); type: functional;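 also: HCT116 colon tumor cells with beta catenin knocked out; cells exposed to compound for 60 hours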
# [6] = viability of PTEN-deleted HCT116 cells – cell-based, HCT116 PTEN knockout, dose response (AID 1047); type: functional;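 also: HCT116 colon tumor cells with PTEN knocked out; cells exposed to compound for 60 hours before readout; potency for loss of cell viability measured by luminescence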
# H9c2 = experiment: cells; type: functional, cell-based; conditions: Rattus norvegicus, H9c2, Myocardium;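 also: confirmatory concentration-response retest of ultra-high-throughput screening hits for modulation of myocardial damage; cell death induced by hydrogen peroxide oxidative stress; compound pretreatment for 60 min then peroxide exposure for 2 h; potency is for protecting the cells against peroxide damage rather than for killing them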
# Cytochrome P450 2C9 [7] = target: T5, Cytochrome P450 2C9 (Homo sapiens, UniProt P11712)
# Cytochrome P450 1A2 = target: T6, Cytochrome P450 1A2 (Homo sapiens, UniProt P05177);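 also: PubChem cytochrome P450 panel assay, CYP1A2 panel member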
# T6 sequence (P05177 whole entry): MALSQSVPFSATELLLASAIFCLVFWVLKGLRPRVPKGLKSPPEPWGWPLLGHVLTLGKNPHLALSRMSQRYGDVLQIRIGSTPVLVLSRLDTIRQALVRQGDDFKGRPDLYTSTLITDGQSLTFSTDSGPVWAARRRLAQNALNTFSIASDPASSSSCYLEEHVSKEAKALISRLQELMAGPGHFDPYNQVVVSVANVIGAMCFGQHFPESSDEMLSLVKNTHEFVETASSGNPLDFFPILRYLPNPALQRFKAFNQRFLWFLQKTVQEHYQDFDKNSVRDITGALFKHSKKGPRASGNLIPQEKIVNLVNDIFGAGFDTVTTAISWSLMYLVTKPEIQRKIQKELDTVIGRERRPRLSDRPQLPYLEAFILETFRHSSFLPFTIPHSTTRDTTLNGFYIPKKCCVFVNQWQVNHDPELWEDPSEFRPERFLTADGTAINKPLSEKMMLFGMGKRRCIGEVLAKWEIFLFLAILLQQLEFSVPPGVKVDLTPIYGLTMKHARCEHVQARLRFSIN
# [8] = Luminescence Cell-Based Dose Retest to Confirm Inhibitors of Cancer Stem Cells. [Related pubchem assays (depositor defined):AID2717, AID2721]; type: functional; conditions: Homo sapiens
# Cytochrome P450 2C9 [9] = target: T5, Cytochrome P450 2C9; remark: listed apart in the source
# Cytochrome P450 3A4 = Cytochrome P450 3A4 (Homo sapiens, UniProt P08684);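 also: CYP3A4 tested as one member of a cytochrome P450 panel screen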
# [10] = NIH3T3 cell viability loss – ATP luminescence, mouse fibroblasts, counter-screen, dose response (AID 2010); type: functional, cell-based;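 also: cells exposed to compound for about 90 hours before reading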
# Nonstructural protein 1 = Nonstructural protein 1 (Influenza A virus, UniProt Q194T2); type: functional, Influenza A virus (A/California/07/2009(H1N1))
# [11] = Trypanosoma cruzi growth suppression in host cells – NIH3T3 host cells, beta-gal luminescence, confirmation (AID 2044); type: functional, cell-based;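 also: intracellular parasites grown in NIH/3T3 mouse fibroblasts as host cells; luminescent beta-galactosidase reporter signal from transgenic T. cruzi replicating inside host cells; inhibitors lower the luminescence signal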
# Fatty acid synthase [12] = target: T7, Fatty acid synthase (Homo sapiens, UniProt P49327); experiment: inhibition of human FAS-TE enzyme activity – biochemical, kinetic fluorescence intensity, dose response (AID 624326); type: functional;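 also: rate of fluorescence rise from hydrolysis of a fluorogenic O-methyl fluorescein ester substrate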
# [13] = HEK-293T viability loss after treatment – luminescence, T-cell screen hits, cytotoxicity control for TCR NF-kB inhibitor project, dose response (AID 489026); type: functional, cell-based;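 also: cells exposed to compound about 14 hours before the viability readout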
# Fatty acid synthase [14] = target: T7, Fatty acid synthase; experiment: inhibition of human FAS-TE enzyme activity – biochemical, endpoint fluorescence intensity, uHTS hits, dose response (AID 624327); type: functional;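 also: fluorescence from hydrolysis of an O-methyl fluorescein acyl ester substrate by the enzyme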
# Cytochrome P450 2C19 = Cytochrome P450 2C19 (Homo sapiens, UniProt P33261); experiment: Cytochrome panel assay with activity outcomes. Panel member name: p450-cyp2c19 Compounds with AC50 equal or less than 10 uM are considered active; type: functional
# INS1 = experiment: INS-1E survival protection against cytokine death – cell-based, luminescence, retest, dose response (AID 449756); type: functional; conditions: Rattus norvegicus;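 also: cell death triggered by IL-1 beta plus TNF-alpha plus IFN-gamma mixture; protective hits raise ATP signal compared with cytokine alone wells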
# T5 sequence (P11712 whole entry): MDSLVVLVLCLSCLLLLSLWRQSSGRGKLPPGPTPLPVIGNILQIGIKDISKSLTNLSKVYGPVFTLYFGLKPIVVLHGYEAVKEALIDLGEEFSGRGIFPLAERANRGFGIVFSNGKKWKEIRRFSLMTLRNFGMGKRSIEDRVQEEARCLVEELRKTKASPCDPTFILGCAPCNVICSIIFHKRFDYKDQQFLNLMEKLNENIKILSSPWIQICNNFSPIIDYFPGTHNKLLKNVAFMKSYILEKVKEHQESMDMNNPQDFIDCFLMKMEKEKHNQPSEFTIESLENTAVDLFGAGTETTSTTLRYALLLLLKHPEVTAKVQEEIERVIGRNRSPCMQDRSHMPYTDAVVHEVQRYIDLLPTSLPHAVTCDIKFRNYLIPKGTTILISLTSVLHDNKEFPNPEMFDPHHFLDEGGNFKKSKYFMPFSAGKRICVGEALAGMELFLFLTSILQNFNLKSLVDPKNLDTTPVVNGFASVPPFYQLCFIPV
# Chain of Cytochrome P450 2D6 (P10635 whole entry): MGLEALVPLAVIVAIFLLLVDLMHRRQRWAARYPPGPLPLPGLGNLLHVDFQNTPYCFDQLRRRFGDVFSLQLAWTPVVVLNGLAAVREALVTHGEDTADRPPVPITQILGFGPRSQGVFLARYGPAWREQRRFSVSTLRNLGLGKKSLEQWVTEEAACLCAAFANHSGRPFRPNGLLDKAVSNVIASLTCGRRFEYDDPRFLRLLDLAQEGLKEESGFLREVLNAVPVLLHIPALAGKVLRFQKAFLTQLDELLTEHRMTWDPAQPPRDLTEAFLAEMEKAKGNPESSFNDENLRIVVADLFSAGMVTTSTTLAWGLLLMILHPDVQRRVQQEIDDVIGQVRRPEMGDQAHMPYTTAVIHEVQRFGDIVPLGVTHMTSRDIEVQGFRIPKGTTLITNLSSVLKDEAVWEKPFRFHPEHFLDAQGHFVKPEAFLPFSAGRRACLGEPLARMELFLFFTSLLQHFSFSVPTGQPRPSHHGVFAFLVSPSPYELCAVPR
# T7 sequence (P49327 whole entry): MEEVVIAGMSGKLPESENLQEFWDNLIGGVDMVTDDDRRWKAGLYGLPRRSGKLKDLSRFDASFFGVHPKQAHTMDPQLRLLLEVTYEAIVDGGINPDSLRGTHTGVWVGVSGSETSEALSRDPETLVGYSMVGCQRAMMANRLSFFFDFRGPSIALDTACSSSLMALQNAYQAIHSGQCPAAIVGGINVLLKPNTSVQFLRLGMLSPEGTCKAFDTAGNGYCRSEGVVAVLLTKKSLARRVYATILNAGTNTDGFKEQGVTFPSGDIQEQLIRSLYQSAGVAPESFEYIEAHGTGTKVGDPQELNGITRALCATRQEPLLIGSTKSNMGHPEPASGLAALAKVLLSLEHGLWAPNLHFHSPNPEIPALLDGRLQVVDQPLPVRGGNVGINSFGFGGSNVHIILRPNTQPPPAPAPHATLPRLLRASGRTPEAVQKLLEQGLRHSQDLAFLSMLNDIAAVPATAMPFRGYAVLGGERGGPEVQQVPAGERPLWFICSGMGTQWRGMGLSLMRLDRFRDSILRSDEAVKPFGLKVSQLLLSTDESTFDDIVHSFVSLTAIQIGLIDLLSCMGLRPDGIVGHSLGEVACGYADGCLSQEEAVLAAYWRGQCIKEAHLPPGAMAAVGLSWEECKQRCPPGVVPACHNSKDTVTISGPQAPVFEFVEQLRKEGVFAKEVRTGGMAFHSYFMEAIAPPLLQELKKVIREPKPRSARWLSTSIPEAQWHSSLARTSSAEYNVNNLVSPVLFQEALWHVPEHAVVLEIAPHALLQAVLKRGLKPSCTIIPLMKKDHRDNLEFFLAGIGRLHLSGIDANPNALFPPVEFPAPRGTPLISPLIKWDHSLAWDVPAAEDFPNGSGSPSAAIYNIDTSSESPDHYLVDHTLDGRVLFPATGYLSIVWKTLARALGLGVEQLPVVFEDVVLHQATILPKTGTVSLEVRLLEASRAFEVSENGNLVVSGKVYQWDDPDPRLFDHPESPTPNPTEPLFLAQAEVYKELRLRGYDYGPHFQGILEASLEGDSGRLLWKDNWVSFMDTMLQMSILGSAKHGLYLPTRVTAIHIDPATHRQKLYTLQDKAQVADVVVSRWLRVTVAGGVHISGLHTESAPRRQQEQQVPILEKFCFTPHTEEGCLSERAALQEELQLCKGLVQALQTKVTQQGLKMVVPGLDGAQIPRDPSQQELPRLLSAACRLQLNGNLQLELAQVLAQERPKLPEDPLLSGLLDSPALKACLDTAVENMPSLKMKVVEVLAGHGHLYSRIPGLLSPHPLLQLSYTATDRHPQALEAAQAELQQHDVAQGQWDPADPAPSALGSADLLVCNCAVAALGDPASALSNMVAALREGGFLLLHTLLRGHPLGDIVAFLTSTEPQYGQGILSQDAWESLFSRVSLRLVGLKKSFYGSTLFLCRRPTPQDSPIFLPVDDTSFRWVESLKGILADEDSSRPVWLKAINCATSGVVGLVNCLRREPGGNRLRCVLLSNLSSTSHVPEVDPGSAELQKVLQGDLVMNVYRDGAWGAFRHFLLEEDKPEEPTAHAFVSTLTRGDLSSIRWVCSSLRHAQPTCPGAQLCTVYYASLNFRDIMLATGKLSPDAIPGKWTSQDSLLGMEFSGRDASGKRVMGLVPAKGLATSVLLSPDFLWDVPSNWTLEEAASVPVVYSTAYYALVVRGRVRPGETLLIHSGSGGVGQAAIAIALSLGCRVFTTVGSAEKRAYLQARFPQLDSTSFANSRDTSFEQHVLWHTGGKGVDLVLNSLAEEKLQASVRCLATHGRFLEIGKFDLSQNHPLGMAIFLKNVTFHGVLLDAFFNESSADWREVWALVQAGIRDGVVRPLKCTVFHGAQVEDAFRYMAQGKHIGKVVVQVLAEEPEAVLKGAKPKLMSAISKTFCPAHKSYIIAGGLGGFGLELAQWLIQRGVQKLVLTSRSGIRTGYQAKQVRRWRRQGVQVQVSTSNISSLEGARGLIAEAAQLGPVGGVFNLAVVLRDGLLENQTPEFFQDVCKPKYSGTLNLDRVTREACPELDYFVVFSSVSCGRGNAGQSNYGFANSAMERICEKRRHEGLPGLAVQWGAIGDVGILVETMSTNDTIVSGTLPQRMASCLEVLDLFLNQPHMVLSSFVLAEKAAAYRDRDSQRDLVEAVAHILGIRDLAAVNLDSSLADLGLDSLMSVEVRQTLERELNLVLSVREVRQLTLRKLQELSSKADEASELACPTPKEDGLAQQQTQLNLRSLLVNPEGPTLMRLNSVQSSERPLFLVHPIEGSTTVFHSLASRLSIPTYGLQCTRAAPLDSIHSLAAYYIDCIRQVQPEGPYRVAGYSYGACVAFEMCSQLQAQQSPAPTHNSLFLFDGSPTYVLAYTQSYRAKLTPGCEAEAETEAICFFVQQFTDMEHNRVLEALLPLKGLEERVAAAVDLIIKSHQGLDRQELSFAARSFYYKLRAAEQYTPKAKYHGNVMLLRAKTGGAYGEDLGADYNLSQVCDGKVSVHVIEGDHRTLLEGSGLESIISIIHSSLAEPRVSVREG
# Chain of Induced myeloid leukemia cell differentiation protein Mcl-1 (Q07820 whole entry): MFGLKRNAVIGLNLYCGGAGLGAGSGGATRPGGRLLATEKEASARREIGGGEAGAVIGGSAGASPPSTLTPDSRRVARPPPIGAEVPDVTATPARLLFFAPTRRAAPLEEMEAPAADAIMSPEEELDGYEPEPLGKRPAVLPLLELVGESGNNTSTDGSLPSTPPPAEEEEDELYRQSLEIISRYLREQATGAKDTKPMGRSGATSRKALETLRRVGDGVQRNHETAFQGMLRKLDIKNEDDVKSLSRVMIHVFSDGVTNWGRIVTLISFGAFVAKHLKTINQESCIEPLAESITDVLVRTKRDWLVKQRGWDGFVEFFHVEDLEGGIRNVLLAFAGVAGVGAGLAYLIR
# Chain of Cytochrome P450 2C19 (P33261 whole entry): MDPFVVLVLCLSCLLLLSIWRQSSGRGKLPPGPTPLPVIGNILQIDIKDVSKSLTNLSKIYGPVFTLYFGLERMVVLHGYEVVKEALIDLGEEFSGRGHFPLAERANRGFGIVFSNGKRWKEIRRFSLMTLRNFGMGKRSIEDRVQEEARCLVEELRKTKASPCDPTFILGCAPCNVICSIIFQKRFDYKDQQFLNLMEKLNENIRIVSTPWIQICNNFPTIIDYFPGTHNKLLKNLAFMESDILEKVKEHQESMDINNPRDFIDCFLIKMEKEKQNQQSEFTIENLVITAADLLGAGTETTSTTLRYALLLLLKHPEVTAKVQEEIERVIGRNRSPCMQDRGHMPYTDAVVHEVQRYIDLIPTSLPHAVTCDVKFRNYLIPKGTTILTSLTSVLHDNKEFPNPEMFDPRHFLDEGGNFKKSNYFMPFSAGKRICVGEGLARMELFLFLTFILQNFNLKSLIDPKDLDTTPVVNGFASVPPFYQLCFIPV
# Chain of Nonstructural protein 1 (Q194T2 whole entry): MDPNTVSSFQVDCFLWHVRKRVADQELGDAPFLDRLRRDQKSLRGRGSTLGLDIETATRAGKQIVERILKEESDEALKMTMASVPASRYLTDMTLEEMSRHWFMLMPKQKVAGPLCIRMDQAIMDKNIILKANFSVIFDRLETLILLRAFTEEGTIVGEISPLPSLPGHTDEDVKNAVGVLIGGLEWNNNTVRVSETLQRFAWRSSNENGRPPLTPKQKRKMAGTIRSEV
# Chain of Cytochrome P450 3A4 (P08684 whole entry): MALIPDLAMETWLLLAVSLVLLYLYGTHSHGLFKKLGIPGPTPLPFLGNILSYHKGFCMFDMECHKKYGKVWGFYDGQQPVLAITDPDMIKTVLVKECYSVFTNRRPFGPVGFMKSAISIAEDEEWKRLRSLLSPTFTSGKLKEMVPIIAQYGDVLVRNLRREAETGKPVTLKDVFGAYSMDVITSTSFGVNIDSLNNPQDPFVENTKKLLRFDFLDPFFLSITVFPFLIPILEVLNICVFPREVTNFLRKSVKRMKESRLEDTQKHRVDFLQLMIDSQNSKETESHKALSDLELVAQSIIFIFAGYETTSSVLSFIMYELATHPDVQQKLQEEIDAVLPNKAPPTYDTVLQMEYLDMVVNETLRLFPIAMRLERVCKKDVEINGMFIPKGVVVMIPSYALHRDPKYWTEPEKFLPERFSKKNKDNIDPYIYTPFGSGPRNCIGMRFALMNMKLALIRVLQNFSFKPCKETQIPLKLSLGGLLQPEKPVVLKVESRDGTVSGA
compound,measurement,setting,value
Oc1nc(S)nc(SCc2c(Cl)c(Cl)c(Cl)c(Cl)c2Cl)n1,AC50,Cytochrome P450 2D6,3.98 µM (inconclusive)
Cc1cnc(CNc2ncnc3ccc(-c4ccc(N(C)C)cc4)cc23)cn1,AC50,Cytochrome P450 2D6,25.1 µM (inconclusive)
CCOC(=O)NNc1ccc2nonc2c1[N+](=O)[O-],IC50,[1],10.8 µM (active)
same,IC50,Caspase-3,8.38 µM (active)
same,IC50,[2],42.2 µM (active)
same,IC50,[3],4.96 µM (active)
same,IC50,[4],4.85 µM (active)
CC(C)OCCCN1C(=O)c2[nH]nc(-c3ccccc3O)c2C1c1cccc(Cl)c1 (centres undefined),EC50,[5],27.6 µM (active)
same,EC50,[6],25.2 µM (active)
CCCc1cc2c(cc1NC(=O)c1ccc(Br)cc1)OCO2,AC50,Cytochrome P450 2D6,0.708 µM (inconclusive)
same,IC50,H9c2,> 79 µM (inactive)
same,AC50,Cytochrome P450 2C9 [7],2.82 µM (inconclusive)
same,AC50,Cytochrome P450 1A2,1.26 µM (inconclusive)
Cc1cc(C)cc(NS(=O)(=O)c2ccc3[nH]cc(C(=O)NCc4ccco4)c(=O)c3c2)c1,EC50,[5],1.78 µM (active)
same,AC50,[8],0.428 µM (active)
same,EC50,[6],2.68 µM (active)
CCOC(=O)C(C(=O)OCC)C(Nc1cccc(Br)c1)c1ccccc1 (centres undefined),EC50,[5],147 µM (active)
same,EC50,[6],115 µM (active)
CC(C)CO/N=C1/[C@H]2O[C@@H]2[C@@H](O)[C@H]2[C@H]1CCn1c(=O)n(-c3ccccc3)c(=O)n12,AC50,Cytochrome P450 2C9 [9],inconclusive
Cc1cccc(C(=O)Nc2nnc(-c3ccc(C(C)(C)C)cc3)s2)c1,AC50,Cytochrome P450 2C9 [9],inconclusive
O=C(c1csnn1)N1CCC2(CCCN(c3ccccc3)C2)CC1,AC50,Cytochrome P450 2D6,20 µM (inconclusive)
Cc1cc2cc(CN(Cc3cccs3)S(=O)(=O)c3ccc4c(c3)OCCO4)c(O)nc2cc1C,EC50,[5],30.2 µM (active)
same,EC50,[6],33.8 µM (active)
Cc1c(C(=O)c2ccc3ccccc3c2)c2cccc3c2n1[C@H](CN1CCOCC1)CO3,AC50,Cytochrome P450 2C9 [9],inconclusive
N#Cc1cccc(-c2cc(NCc3cccs3)ncn2)c1,AC50,Cytochrome P450 2D6,20 µM (inconclusive)
same,AC50,Cytochrome P450 3A4,1.58 µM (inconclusive)
N#C/C(=C/c1cn(-c2ccccc2)nc1-c1cccc(OCc2ccc(F)cc2)c1)C(=O)NCCCn1ccnc1,EC50,[10],> 30 µM (not active)
same,EC50,[5],21.7 µM (active)
same,AC50,[8],2.5 µM (active)
same,IC50,Nonstructural protein 1,81.1 µM (active)
same,EC50,[6],23.4 µM (active)
same,EC50,[11],1.46 µM (active)
COc1ccc2c(c1)C(=O)N1[C@H]3c4cc(Br)ccc4OC[C@@H]3[C@H](c3ccccc3)[C@]1(C)C(=O)N2,IC50,Fatty acid synthase [12],18 µM (active)
same,IC50,[13],> 80 µM (inactive)
same,IC50,Fatty acid synthase [14],17.1 µM (active)
O=C(c1cccc(F)c1)N1CCC2(CCCN(c3ncccn3)C2)CC1,AC50,Cytochrome P450 2D6,31.6 µM (inconclusive)
same,AC50,Cytochrome P450 1A2,25.1 µM (inconclusive)
Br.CCCCN1C2=NCCCN2c2ccccc21,AC50,Cytochrome P450 2C19,inconclusive
same,AC50,Cytochrome P450 2C9 [9],inconclusive
Cc1ccc(O)c(NC(=O)c2cc(-c3ccco3)on2)c1,IC50,[13],> 80 µM (inactive)
same,IC50,[1],8.57 µM (active)
same,IC50,Caspase-3,21.3 µM (active)
same,IC50,[3],> 100 µM (inactive)
same,IC50,[4],> 100 µM (inactive)
Cc1cc(C)n(CCc2nc(-c3ccc(-c4ccccc4)cc3)cs2)n1,IC50,[1],4.98 µM (active)
same,IC50,Caspase-3,23.9 µM (active)
same,IC50,[3],20.5 µM (active)
same,IC50,[4],59.3 µM (active)
CN(C)c1ccc(NC(=O)CSc2nc(N)c(C(=O)Nc3ccc(N(C)C)cc3)s2)cc1,AC50,Cytochrome P450 2D6,17.8 µM (inconclusive)
COc1ccc(C(=O)c2cnc3ccccc3c2-c2ccccc2)cc1,AC50,Cytochrome P450 2D6,31.6 µM (inconclusive)
same,AC50,Cytochrome P450 2C9 [7],7.08 µM (inconclusive)
CN(C)S(=O)(=O)c1ccc(Nc2nc(C3CC3)nc3c2nnn3Cc2ccccc2Cl)cc1,IC50,[13],> 80 µM (inactive)
same,AC50,INS1,4.71 µM (active)
COc1ccc(-n2c(=O)c(-c3cn(C)c4ccccc34)nc3cncnc32)cc1,AC50,Cytochrome P450 2C9 [9],inconclusive
